Measurements as given in PubChem BioAssay (NCI).
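The compound was tested at five concentrations on cells cultured in 96-well plates, with a 48-hour exposure period. The concentration for 50% growth inhibition is given as GI50. TGI denotes the concentration required for complete inhibition of growth.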

Assays:
Assay in all cases: growth of human tumour cells (NCI), 48 h
[1] = tested on: BT-549 breast
[2] = tested on: KM12 colon
[3] = tested on: HT29 colon
[4] = tested on: SNB-75 CNS
[5] = tested on: MDA-MB-435
[6] = tested on: HS 578T breast
[7] = tested on: SNB-19 CNS
[8] = tested on: NCI-H522 lung
[9] = tested on: SF-539 CNS
[10] = tested on: SF-295 CNS

Compound	GI50 [1] [µM]	TGI [1] [µM]	GI50 [2] [µM]	TGI [2] [µM]	GI50 [3] [µM]	TGI [3] [µM]	GI50 [4] [µM]	TGI [4] [µM]	GI50 [5] [µM]	TGI [5] [µM]	GI50 [6] [µM]	TGI [6] [µM]	GI50 [7] [µM]	TGI [7] [µM]	GI50 [8] [µM]	TGI [8] [µM]	GI50 [9] [µM]	TGI [9] [µM]	GI50 [10] [µM]	TGI [10] [µM]
Cn1ccnc1C(=O)/C=C/c1ccc(CC(=O)Nc2ccc(C(F)(F)F)cc2)cc1	2.56	5.33	3.23	8.69	3.96	9.02	2.5	8.01	3.88	12.5	6.14	> 16.7	2.46	5.09	3.35	6.39	2.21	4.45	2.56	5.17
N=C(N)c1ccc(COc2ccccc2OCc2ccc(C(=N)N)cc2)cc1	34.8	76.7	–	–	47	> 100	73.8	> 100	30.2	> 100	18.2	52.6	41.4	> 100	99.5	> 100	14	34.6	24.1	82.4
CC(C)(C#N)c1cc(C(=O)Nc2cc(Nc3ncccc3-c3ncnc4nc[nH]c34)ccc2F)cc(C(F)(F)F)c1	–	> 2.3	1.18	> 2.09	0.132	–	–	> 10	0.217	> 3.22	0.919	> 2.33	> 2.15	> 10	–	> 6.56	–	–	–	> 3.73
FC(F)(F)c1ccc(-c2cnc(Cl)nc2NCc2cc(C(F)(F)F)cc(C(F)(F)F)c2)cc1	5.59	> 100	3.06	> 100	3.26	> 100	1.7	> 100	2.96	> 100	3.03	> 100	2.44	> 100	2.69	9.86	3.78	> 100	2.66	> 100
Nc1n[nH]c2ccc([C@@H]3Nc4ccc5[nH]ncc5c4[C@H]4C5C=CC(C5)[C@@H]34)cc12 (stereo partly specified)	0.32	7.05	0.39	11.4	0.357	28.7	0.176	24.8	0.0794	0.444	0.27	21.2	0.59	61.3	0.173	12.7	0.271	1.1	0.172	4.38
CC(C)c1ccc(Nc2nccc(-c3cnn4ncccc34)n2)cc1	0.967	> 25	0.201	1.83	0.6	3.24	0.484	1.17	0.567	1.66	0.623	5.16	0.842	> 25	0.564	3.35	0.481	1.68	0.523	12.2
COC(=O)C1=C(OC(=O)c2ccc(Cl)cc2)C(C(=O)OC)[C@@]2(O)[C@@H](C(=O)OC)C(c3ccccc3Cl)C[C@@H]1[C@@H]2C(=O)OC (stereo partly specified)	5.47	> 100	2.81	50.8	6.57	> 100	5.05	30.3	2.06	4.93	3.79	> 100	24.1	> 100	2.77	7.92	12.4	61	–	–
CCOC(=O)c1nc(Nc2ccc(Cl)cc2)c2ccccc2n1	10.2	25.5	7.42	15.1	–	–	11.9	29.5	6.85	13.3	11.3	27.2	13.5	43.2	10.5	25.8	10.6	20.9	8.09	15.6
C/C=C/[C@@H]1OC(=O)C2=C[C@@H](O)[C@@H](/C=C/C)O[C@H]21	2.31	8.67	16.9	38.9	2.09	5.89	14.6	32.4	10.4	25.5	17.1	41.2	16.6	33.8	1.93	–	1.1	3.49	18	44.8
COCCNc1cc(NC(=O)N2CCCc3cc(CN4CCN(C)CC4=O)c(C=O)nc32)ncc1C#N	> 50	> 50	> 50	> 50	> 50	> 50	16	> 50	> 50	> 50	23.7	> 50	> 50	> 50	> 50	> 50	> 50	> 50	> 50	> 50
COc1ccc(/C=C2\CCC(CN(C)C)C2=O)cc1OC (stereo unspecified)	–	14.3	–	10.8	–	23.5	–	30.5	–	16.1	–	> 100	–	30.6	–	4.23	–	25	–	29.2
COC(=O)C(F)C(Br)C(=O)OC (stereo unspecified)	–	31	–	50.6	–	5.43	–	31	–	27.3	–	68.6	–	> 79.3	–	3.94	–	20.4	–	70.1
O=C(OCCBr)c1ccc(Cl)c([N+](=O)[O-])c1	18.1	33.1	5	10.9	2.51	5.14	5.63	12.2	15.5	30.9	3.13	> 26.4	1.87	3.74	0.957	3.04	19.6	36	15.5	30.5
